In patent publication US12522596B2, “Compounds as GLP-1R agonists” (Terns Pharmaceuticals, Inc., priority 2021, dated 2026):
Several values for one entry are separate records, joined by “and”; a condition that tells them apart may be missing. Identical values can stand only once. Like-named read-outs stand apart in the source and are kept apart here. Marks after values point to notes of the source that are not given here.

Test: Pharmacokinetics in hGLP-1R mice after oral dosing
Type: in vivo, male C57BL/6J hGLP-1R mouse
Protocol: IPGTT (120 min)—PK bleeding: 40 μL blood samples (all treatment groups) were collected from mice under the jaw at IPGTT-120 min after blood glucose measurement into pre-chilled EDTA-2K tubes. Blood samples were processed for plasma by centrifugation at 4° C., 3200×g for 10 min. 15 μL plasma was stored at −80° C. for PK analysis. From 4 mice in Group 7 of the PD cohort, whole brain was collected after blood is harvested at 120 min post dose, rinsed with saline and patted dry and placed into a pre-weighed tube and stored at −80° C. collected for PK analysis.
PK bleeding group design is described in Table 9.
PK bleeding: 30 μL blood was collected at 0.25, 0.5, 1, 2, 4, and 8 h. Blood samples were processed for plasma by centrifugation at 4° C., 3200×g for 10 min. 12 μL plasma was collected at −80° C. for further analysis. From 3 mice in Group 7 of the PK cohort, whole brain was collected after blood is harvested at 8 hr post dose, rinsed with saline and patted dry and placed into a pre-weighed tube and stored at −80° C. collected for PK analysis.
For plasma: An aliquot of 3 μL sample was protein precipitated with 60 μL internal standard (100 ng/mL Labetalol & 100 ng/ml Dexamethasone & 100 ng/ml Tolbutamide & 100 ng/mL Verapamil & 100 ng/ml Glyburide & 100 ng/ml Celecoxib in ACN) and then the mixture was vortex-mixed for 10 min at 800 rpm and centrifuged for 15 min at 3220×g, 4° C.
The linear/log trapezoidal rule was applied in obtaining the PK parameters. Individual plasma concentration values that were below the lower limit of quantitation (LOQ) were excluded from the PK parameter calculation. The nominal dose levels and nominal sampling times were used in the calculation of all pharmacokinetic parameters.

[1] = hGLP-1R mouse plasma, PO 0.3 mg/kg, individual mice, 0.3 mg/kg
[2] = hGLP-1R mouse plasma, PO 0.3 mg/kg, mean
[3] = hGLP-1R mouse plasma, PO 1 mg/kg, individual mice, 1 mg/kg
[4] = hGLP-1R mouse plasma, PO 1 mg/kg, mean
[5] = hGLP-1R mouse plasma, PO 3 mg/kg, individual mice, 3 mg/kg
[6] = hGLP-1R mouse plasma, PO 3 mg/kg, mean

N#Cc1ccc(COc2cccc(C3CCN(Cc4nc5ccc(C(=O)O)cc5n4Cc4cncs4)CC3)n2)c(F)c1 [Compound 2]
higher AUClast than Reference Compound A (hGLP-1R mice, PO 0.3 mg/kg): four-fold
higher Cmax than Reference Compound A (hGLP-1R mice, PO 0.3 mg/kg): three-fold
higher AUClast than Reference Compound A (hGLP-1R mice, PO 1.0 mg/kg): approximately 4.6 fold
higher Cmax than Reference Compound A (hGLP-1R mice, PO 1.0 mg/kg): approximately 5.7 fold
increase in exposure values over a ten-fold increase in dose (hGLP-1R mice, PO 0.3 to 3 mg/kg): 22 fold
increase of exposure with dose (dose proportionality) (hGLP-1R mice, PO, Reference Compound A 0.3-1 mg/kg, Compound 2 0.3-3 mg/kg): greater than proportional manner
Concentration (hGLP-1R mouse plasma collected at 120 min (IPGTT cohort), PO 0.3 mg/kg, individual animals, 0.3 mg/kg): 26.1 ng/mL and 11.5 ng/mL and 15.0 ng/mL and 31.4 ng/mL and 17.3 ng/mL and 17.2 ng/mL and 13.1 ng/mL
Concentration (hGLP-1R mouse plasma collected at 120 min (IPGTT cohort), PO 1 mg/kg, individual animals, 1 mg/kg): 61.2 ng/mL and 53.6 ng/mL and 148 ng/mL and 60.4 ng/mL and 60.3 ng/mL and 48.9 ng/mL and 56.3 ng/mL
Concentration (hGLP-1R mouse plasma collected at 120 min (IPGTT cohort), PO 3 mg/kg, individual animals, 3 mg/kg): 159 ng/mL and 227 ng/mL and 555 ng/mL and 301 ng/mL and 239 ng/mL and 229 ng/mL and 231 ng/mL
Concentration (hGLP-1R mouse plasma, PO 0.3 mg/kg, 0.25 h, individual animals, 0.3 mg/kg): 66.8 ng/mL and 116 ng/mL and 52.2 ng/mL
Concentration (hGLP-1R mouse plasma, PO 0.3 mg/kg, 0.5 h, individual animals, 0.3 mg/kg): 60.3 ng/mL and 118 ng/mL
Concentration (hGLP-1R mouse plasma, PO 0.3 mg/kg, 1 h, individual animals, 0.3 mg/kg): 49.2 ng/mL and 55.8 ng/mL
Concentration (hGLP-1R mouse plasma, PO 0.3 mg/kg, 2 h, individual animals, 0.3 mg/kg): 18.2 ng/mL and 6.53 ng/mL and 7.14 ng/mL
Concentration (hGLP-1R mouse plasma, PO 0.3 mg/kg, 4 h, individual animals, 0.3 mg/kg): 7.15 ng/mL and 1.84 ng/mL and 2.23 ng/mL
Concentration (hGLP-1R mouse plasma, PO 0.3 mg/kg, 8 h, individual animals, 0.3 mg/kg): 1.64 ng/mL and BQL
AUC0-inf [1]: 90.4 ng·h/mL and 120 ng·h/mL
AUC0-last [1]: 87.0 ng·h/mL and 117 ng·h/mL
AUCExtra [1]: 5.66% and 3.76% and 1.86%
AUMCExtra [1]: 25.0% and 22.4% and 10.0%
Cmax [1]: 66.8 ng/mL and 118 ng/mL
MRT0-inf [1]: 2.49 h and 1.69 h and 0.928 h
MRT0-last [1]: 1.98 h and 1.36 h and 0.851 h
T1/2 [1]: 2.08 h and 1.44* h and 0.691* h
Tlast [1]: 8.00 h (2×) and 4.00 h
Tmax [1]: 0.250 h
AUCExtra [2]: 3.76%
AUMCExtra [2]: 19.1%
Concentration (hGLP-1R mouse plasma, PO 1 mg/kg, 0.25 h, individual animals, 1 mg/kg): 208 ng/mL and 224 ng/mL
Concentration (hGLP-1R mouse plasma, PO 1 mg/kg, 0.5 h, individual animals, 1 mg/kg): 256 ng/mL and 265 ng/mL
Concentration (hGLP-1R mouse plasma, PO 1 mg/kg, 1 h, individual animals, 1 mg/kg): 183 ng/mL and 156 ng/mL
Concentration (hGLP-1R mouse plasma, PO 1 mg/kg, 2 h, individual animals, 1 mg/kg): 77.6 ng/mL and 36.6 ng/mL and 31.7 ng/mL
Concentration (hGLP-1R mouse plasma, PO 1 mg/kg, 4 h, individual animals, 1 mg/kg): 8.59 ng/mL and 6.36 ng/mL
Concentration (hGLP-1R mouse plasma, PO 1 mg/kg, 8 h, individual animals, 1 mg/kg): 4.90 ng/mL and 6.23 ng/mL and 3.07 ng/mL
Tlast (hGLP-1R mouse plasma, PO 1 mg/kg, individual mice): 8.00 h
AUC0-inf [3]: 366 ng·h/mL and 326 ng·h/mL
AUC0-last [3]: 352 ng·h/mL and 320 ng·h/mL
AUCExtra [3]: 1.78% and 3.97% and 1.84%
AUMCExtra [3]: 11.9% and 22.6% and 12.9%
Cmax [3]: 256 ng/mL and 265 ng/mL
MRT0-inf [3]: 1.81 h and 1.42 h
MRT0-last [3]: 1.46 h and 1.26 h
T1/2 [3]: 1.62* h and 1.36* h
AUCExtra [4]: 2.53%
AUMCExtra [4]: 15.8%
Tlast [4]: 8.00 h
Concentration (hGLP-1R mouse plasma, PO 3 mg/kg, 0.25 h, individual animals, 3 mg/kg): 823 ng/mL and 1030 ng/mL and 2870 ng/mL
Concentration (hGLP-1R mouse plasma, PO 3 mg/kg, 0.5 h, individual animals, 3 mg/kg): 982 ng/mL and 937 ng/mL and 3450 ng/mL
Concentration (hGLP-1R mouse plasma, PO 3 mg/kg, 1 h, individual animals, 3 mg/kg): 592 ng/mL and 387 ng/mL and 1990 ng/mL
Concentration (hGLP-1R mouse plasma, PO 3 mg/kg, 2 h, individual animals, 3 mg/kg): 157 ng/mL and 100 ng/mL and 655 ng/mL
Concentration (hGLP-1R mouse plasma, PO 3 mg/kg, 4 h, individual animals, 3 mg/kg): 48.1 ng/mL and 35.1 ng/mL and 170 ng/mL
Tlast (hGLP-1R mouse plasma, PO 3 mg/kg, individual mice): 8.00 h
AUC0-inf [5]: 1923 ng·h/mL and 1229 ng·h/mL and 4707 ng·h/mL
AUC0-last [5]: 1497 ng·h/mL and 1154 ng·h/mL and 4673 ng·h/mL
AUCExtra [5]: 22.2% and 6.12% and 0.710%
AUMCExtra [5]: 63.8% and 30.6% and 4.74%
Cmax [5]: 982 ng/mL and 1030 ng/mL and 3450 ng/mL
MRT0-inf [5]: 4.39 h and 2.08 h and 1.46 h
MRT0-last [5]: 1.54 h
T1/2 [5]: 3.21* h and 1.68* h and 1.19 h
Tmax [5]: 0.250 h
AUCExtra [6]: 9.68%
AUMCExtra [6]: 33.0%
Tlast [6]: 8.00 h
AUC(0-t) (male, C57BL/6J hGLP-1R, mouse, plasma, po, 0.3 mg/kg, hGLP-1R mice, total, PO 0.3 mg/kg, read-out: AUClast Mean): 107 ng·h/mL
Cmax (male, C57BL/6J hGLP-1R, mouse, plasma, po, 0.3 mg/kg, hGLP-1R mice, total, PO 0.3 mg/kg, read-out: Cmax Mean): 82.7 ng/mL
half-life (male, C57BL/6J hGLP-1R, mouse, plasma, po, 0.3 mg/kg, hGLP-1R mice, total, PO 0.3 mg/kg, read-out: T1/2 (converted)): 1.4 h
Tmax (male, C57BL/6J hGLP-1R, mouse, plasma, po, 0.3 mg/kg, hGLP-1R mice, total, PO 0.3 mg/kg, read-out: Tmax Median): 0.5 h
concentration at 120 min (male, C57BL/6J hGLP-1R, mouse, plasma, po, 0.3 mg/kg, hGLP-1R mouse plasma collected at 120 min (IPGTT cohort), PO 0.3 mg/kg, read-out: Mean Concentration): 18.8 ng/mL
concentration at 0.25 h (male, C57BL/6J hGLP-1R, mouse, plasma, po, 0.3 mg/kg, hGLP-1R mouse plasma, PO 0.3 mg/kg, 0.25 h, read-out: Mean Concentration): 78.3 ng/mL
concentration at 0.5 h (male, C57BL/6J hGLP-1R, mouse, plasma, po, 0.3 mg/kg, hGLP-1R mouse plasma, PO 0.3 mg/kg, 0.5 h, individual animals, read-out: Concentration): 63.4 ng/mL
